Data reported in ChEMBL document CHEMBL4411322 (J Med Chem, 2019).
Non-standard residues stand in square brackets, D forms with d. Residues, ends and D or L forms follow the SMILES beside them. dNMeF = CN[C@H](Cc1ccccc1)C(=O)O

Experiments:
Integrin alpha-V/beta-6 = Integrin alpha-V/beta-6 (Homo sapiens, UniProt P06756+P18564); test: Inhibition of LAP binding to human integrin alphavbeta6 receptor after 1 hr by solid-phase binding assay; type: protein-complex assay
Integrin alpha-V/beta-8 = Integrin alpha-V/beta-8 (Homo sapiens, UniProt P06756+P26012); test: Inhibition of LAP binding to human integrin alphavbeta8 receptor after 1 hr by solid-phase binding assay; type: protein-complex assay
Homo sapiens = species: Homo sapiens; test: Selectivity ratio of IC50 for human integrin alphavbeta6 receptor to IC50 for human integrin alphavbeta8 receptor

Chain of Integrin alpha-V/beta-8 (P06756 31-889 limits assumed): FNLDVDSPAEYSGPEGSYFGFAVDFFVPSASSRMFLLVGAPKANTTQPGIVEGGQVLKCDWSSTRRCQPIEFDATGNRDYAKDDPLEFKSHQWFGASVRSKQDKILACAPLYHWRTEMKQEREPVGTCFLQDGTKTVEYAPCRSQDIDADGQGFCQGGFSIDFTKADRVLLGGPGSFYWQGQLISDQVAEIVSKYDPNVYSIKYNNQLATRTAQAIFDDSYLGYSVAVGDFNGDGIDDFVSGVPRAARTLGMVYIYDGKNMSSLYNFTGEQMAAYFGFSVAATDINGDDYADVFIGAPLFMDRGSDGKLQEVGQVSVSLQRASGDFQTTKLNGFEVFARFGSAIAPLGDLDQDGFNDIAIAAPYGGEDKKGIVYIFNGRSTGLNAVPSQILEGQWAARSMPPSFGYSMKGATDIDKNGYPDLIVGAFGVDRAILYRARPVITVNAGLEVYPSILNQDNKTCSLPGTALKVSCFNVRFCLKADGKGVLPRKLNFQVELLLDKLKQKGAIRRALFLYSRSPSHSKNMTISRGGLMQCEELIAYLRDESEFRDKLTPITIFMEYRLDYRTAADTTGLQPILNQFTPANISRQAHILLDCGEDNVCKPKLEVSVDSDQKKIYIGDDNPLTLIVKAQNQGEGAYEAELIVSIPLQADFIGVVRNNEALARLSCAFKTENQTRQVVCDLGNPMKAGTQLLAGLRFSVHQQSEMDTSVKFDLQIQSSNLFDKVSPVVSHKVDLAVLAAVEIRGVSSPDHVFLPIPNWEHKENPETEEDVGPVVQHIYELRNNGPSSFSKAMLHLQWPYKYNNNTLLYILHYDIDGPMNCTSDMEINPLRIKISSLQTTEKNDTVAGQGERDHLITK
Chain of Integrin alpha-V/beta-8 (P06756 891-1048 limits assumed): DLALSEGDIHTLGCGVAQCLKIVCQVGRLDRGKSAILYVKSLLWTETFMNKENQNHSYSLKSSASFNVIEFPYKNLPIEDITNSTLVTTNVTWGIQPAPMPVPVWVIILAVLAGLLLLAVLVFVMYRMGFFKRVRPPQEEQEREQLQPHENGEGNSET
Chain of Integrin alpha-V/beta-8 (P26012 43-769 limits assumed): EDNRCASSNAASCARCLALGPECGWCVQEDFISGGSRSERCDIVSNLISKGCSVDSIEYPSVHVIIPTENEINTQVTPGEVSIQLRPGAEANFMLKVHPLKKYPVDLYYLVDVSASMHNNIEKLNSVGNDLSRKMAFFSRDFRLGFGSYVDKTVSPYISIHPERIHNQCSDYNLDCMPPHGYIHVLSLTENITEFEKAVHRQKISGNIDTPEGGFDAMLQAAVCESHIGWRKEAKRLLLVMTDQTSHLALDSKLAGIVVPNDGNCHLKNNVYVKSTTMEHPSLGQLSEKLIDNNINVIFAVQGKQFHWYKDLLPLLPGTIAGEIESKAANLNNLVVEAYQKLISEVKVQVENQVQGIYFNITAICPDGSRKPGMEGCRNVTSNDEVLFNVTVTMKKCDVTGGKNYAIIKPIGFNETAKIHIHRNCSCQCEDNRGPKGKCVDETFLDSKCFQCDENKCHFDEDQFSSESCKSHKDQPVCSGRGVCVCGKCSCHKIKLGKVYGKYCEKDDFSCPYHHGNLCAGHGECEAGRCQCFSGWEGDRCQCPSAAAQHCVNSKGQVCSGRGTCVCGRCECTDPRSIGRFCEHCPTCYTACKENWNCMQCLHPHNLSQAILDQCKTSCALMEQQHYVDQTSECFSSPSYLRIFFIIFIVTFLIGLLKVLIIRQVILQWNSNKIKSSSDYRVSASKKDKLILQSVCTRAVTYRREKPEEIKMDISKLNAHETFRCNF
Chain of Integrin alpha-V/beta-6 (P06756 31-889 limits assumed): as the sequence (P06756 31-889 limits assumed) above
Chain of Integrin alpha-V/beta-6 (P06756 891-1048 limits assumed): as the sequence (P06756 891-1048 limits assumed) above
Chain of Integrin alpha-V/beta-6 (P18564 22-788 limits assumed): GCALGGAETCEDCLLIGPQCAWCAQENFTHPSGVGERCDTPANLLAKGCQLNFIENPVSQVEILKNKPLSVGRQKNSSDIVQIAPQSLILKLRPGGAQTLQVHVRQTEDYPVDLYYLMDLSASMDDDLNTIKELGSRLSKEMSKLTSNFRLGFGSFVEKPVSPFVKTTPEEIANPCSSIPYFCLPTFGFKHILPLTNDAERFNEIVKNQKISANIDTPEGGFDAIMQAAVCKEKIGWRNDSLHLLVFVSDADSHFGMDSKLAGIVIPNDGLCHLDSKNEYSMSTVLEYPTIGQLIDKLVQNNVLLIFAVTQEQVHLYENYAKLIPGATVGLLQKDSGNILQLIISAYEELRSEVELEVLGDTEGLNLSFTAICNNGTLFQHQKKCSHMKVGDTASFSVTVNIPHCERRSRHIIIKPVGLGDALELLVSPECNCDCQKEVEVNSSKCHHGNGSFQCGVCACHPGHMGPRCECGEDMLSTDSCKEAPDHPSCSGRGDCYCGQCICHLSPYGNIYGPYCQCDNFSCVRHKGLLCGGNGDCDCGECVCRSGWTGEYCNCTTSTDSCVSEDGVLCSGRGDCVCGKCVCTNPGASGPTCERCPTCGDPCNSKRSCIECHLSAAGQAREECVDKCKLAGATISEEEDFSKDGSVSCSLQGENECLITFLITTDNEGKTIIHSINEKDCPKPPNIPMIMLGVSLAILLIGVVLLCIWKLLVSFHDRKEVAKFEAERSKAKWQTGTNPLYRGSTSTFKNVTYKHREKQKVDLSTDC

| IC50 (Integrin alpha-V/beta-6; read-out: IC50) [nM] | IC50 (Integrin alpha-V/beta-8; read-out: IC50) [nM] | Ratio IC50 (Homo sapiens) | IC50 (Integrin alpha-V/beta-8) | IC50 (Integrin alpha-V/beta-6) | SMILES |
| --- | --- | --- | --- | --- | --- |
| 39 | 12.1 | 3.2 | – | – | CC(C)C[C@@H]1NC(=O)[C@H](C)NC(=O)[C@@H]2CCCN2C(=O)[C@@H](CCCCN)N(C)C(=O)[C@H](CC(C)C)NC(=O)[C@H](CC(=O)O)NC(=O)CNC(=O)[C@H](CCCNC(=N)N)NC1=O |
| 69.9 | 1110 | – | – | – | CC(C)C[C@@H]1NC(=O)[C@H](C)NC(=O)[C@@H]2CCCN2C(=O)[C@H]2CCCN2C(=O)[C@H](C)NC(=O)[C@H](CC(C)C)NC(=O)[C@H](CC(=O)O)NC(=O)CNC(=O)[C@H](CCCNC(=N)N)NC(=O)[C@H](C)NC1=O |
| 73 | 3.73 | 20.1 | – | – | CC(C)C[C@@H]1NC(=O)[C@H](CC(=O)O)NC(=O)CNC(=O)[C@H](CCCNC(=N)N)NC(=O)[C@H](Cc2c[nH]c3ccccc23)NC(=O)[C@H](C)NC(=O)[C@@H]2CCCN2C(=O)[C@H]2CCCN2C1=O |
| 495 | 8410 | – | – | – | CC(C)C[C@@H]1NC(=O)[C@H](C)NC(=O)[C@@H]2CCCN2C(=O)[C@H]2CCCN2C(=O)[C@H](C)NC(=O)[C@H](CC(C)C)NC(=O)[C@H](CC(=O)O)NC(=O)[C@H]([C@@H](C)O)NC(=O)[C@H](CCCNC(=N)N)NC(=O)[C@H](C)NC1=O |
| 74 | 25 | 3 | – | – | CC(C)C[C@@H]1NC(=O)[C@H](C)NC(=O)[C@H](Cc2ccccc2)N(C)C(=O)[C@H]2CCCN2C(=O)[C@H](CC(C)C)NC(=O)[C@H](CC(=O)O)NC(=O)CNC(=O)[C@H](CCCNC(=N)N)NC1=O |
| 112 | 59.4 | 1.9 | – | – | CC(C)C[C@@H]1NC(=O)[C@H](CC(=O)O)NC(=O)CNC(=O)[C@H](CCCNC(=N)N)NC(=O)[C@@H](C)NC(=O)[C@H](C)NC(=O)[C@@H]2CCCN2C(=O)[C@H]2CCCN2C1=O |
| 430 | 270 | 1.6 | – | – | CC(C)C[C@@H]1NC(=O)[C@H](C)NC(=O)[C@@H]2CCCN2C(=O)[C@H]2CCCN2C(=O)[C@H](CC(C)C)NC(=O)[C@H](CC(=O)O)NC(=O)CNC(=O)[C@H](CCCNC(=N)N)NC(=O)[C@H](C)NC(=O)[C@H](C)NC1=O |
| 223 | 10.5 | 21 | – | – | CC(=O)NC1C[C@H]2C(=O)NCC(=O)N[C@@H](CC(C)C)C(=O)N[C@@H](CCCNC(=N)N)C(=O)NCC(=O)N[C@@H](CC(=O)O)C(=O)N[C@@H](CC(C)C)C(=O)N3CCC[C@@H]3C(=O)N2C1 (some centres undefined) |
| 40.2 | 1.54 | 26.1 | – | – | CC[C@H](C)[C@@H]1NC(=O)[C@H](C)NC(=O)[C@@H]2CCCN2C(=O)[C@H]2CCCN2C(=O)[C@H](CC(C)C)NC(=O)[C@H](CC(=O)O)NC(=O)CNC(=O)[C@H](CCCNC(=N)N)NC1=O |
| – | – | 15 | – | – | CC(C)C[C@@H]1NC(=O)[C@H](CO)NC(=O)[C@@H]2CCCN2C(=O)[C@H]2CCCN2C(=O)[C@H](CC(C)C)NC(=O)[C@H](CC(=O)O)NC(=O)CNC(=O)[C@H](CCCNC(=N)N)NC1=O (cyclo(RGDL[dP]PSL)) |
| 31 | 19 | 1.6 | – | – | CC(C)C[C@@H]1NC(=O)[C@H](C)NC(=O)[C@@H]2CCCN2C(=O)[C@@H](C(C)C)N(C)C(=O)[C@H](CC(C)C)NC(=O)[C@H](CC(=O)O)NC(=O)CNC(=O)[C@H](CCCNC(=N)N)NC1=O |
| – | 27 | – | – | – | CC(=O)NCCCCN1C(=O)[C@H]2CCCN2C(=O)[C@H](CC(C)C)NC(=O)[C@H](CC(=O)O)NC(=O)CNC(=O)[C@H](CCCNC(=N)N)NC(=O)[C@H](CC(C)C)NC(=O)CNC(=O)[C@@H]1C |
| 826 | 4340 | – | – | – | C[C@@H]1NC(=O)[C@@H]2CCCN2C(=O)[C@H]2CCCN2C(=O)[C@H](CCCCN)NC(=O)[C@H](CC(=O)O)NC(=O)CNC(=O)[C@H](CCCNC(=N)N)NC(=O)[C@H](Cc2ccccc2)NC1=O |
| 204 | 12.8 | 16 | – | – | CCCCCCNC1C[C@H]2C(=O)NCC(=O)N[C@@H](CC(C)C)C(=O)N[C@@H](CCCNC(=N)N)C(=O)NCC(=O)N[C@@H](CC(=O)O)C(=O)N[C@@H](CC(C)C)C(=O)N3CCC[C@@H]3C(=O)N2C1 (some centres undefined) |
| 142 | 38.1 | 3.7 | – | – | CCCC[C@@H]1NC(=O)[C@H](CC(=O)O)NC(=O)CNC(=O)[C@H](CCCNC(=N)N)NC(=O)[C@H](Cc2ccccc2)NC(=O)[C@H](C)NC(=O)[C@@H]2CCCN2C(=O)[C@H]2CCCN2C1=O |
| 256 | 4.3 | 60 | – | – | CC(C)C[C@@H]1NC(=O)[C@H](CC(=O)O)NC(=O)[C@H]([C@@H](C)O)NC(=O)[C@H](CCCNC(=N)N)NC(=O)[C@H](Cc2ccccc2)NC(=O)[C@H](C)NC(=O)[C@@H]2CCCN2C(=O)[C@H]2CCCN2C1=O |
| – | 197 | 2.1 | – | – | CC(C)C[C@@H]1NC(=O)[C@H](CC(=O)O)NC(=O)CNC(=O)[C@H](CCCNC(=N)N)NC(=O)[C@H](C)NC(=O)[C@@H]2CCCN2C(=O)[C@H]2CCCN2C1=O (cyclo(ARGDL[dP]P)) |

| IC50 (Integrin alpha-V/beta-6; read-out: IC50) [nM] | IC50 (Integrin alpha-V/beta-8; read-out: IC50) [nM] | Ratio IC50 (Homo sapiens) | IC50 (Integrin alpha-V/beta-8) | IC50 (Integrin alpha-V/beta-6) | SMILES |
| --- | --- | --- | --- | --- | --- |
| 559 | – | – | Not Active | – | CC(C)C[C@H]1NC(=O)[C@H](CC(=O)O)NC(=O)CNC(=O)[C@H](CCCNC(=N)N)NC(=O)[C@H](Cc2ccccc2)NC(=O)[C@H](C)NC(=O)[C@@H]2CCCN2C(=O)[C@H]2CCCN2C1=O |
| 324 | 1150 | – | – | – | C[C@@H]1NC(=O)[C@@H]2CCCN2C(=O)[C@H]2CCCN2C(=O)[C@H](Cc2ccccc2)NC(=O)[C@H](CC(=O)O)NC(=O)CNC(=O)[C@H](CCCNC(=N)N)NC(=O)[C@H](Cc2ccccc2)NC1=O |
| – | 467 | – | – | Not Active | CC(C)[C@@H]1NC(=O)[C@H](CC(=O)O)NC(=O)CNC(=O)[C@H](CCCNC(=N)N)NC(=O)[C@H](Cc2ccccc2)NC(=O)[C@H](C)NC(=O)[C@@H]2CCCN2C(=O)[C@H]2CCCN2C1=O |
| 215 | 57 | 3.8 | – | – | CC(=O)NCCCC[C@@H]1C(=O)N2CCC[C@H]2C(=O)NCC(=O)N[C@@H](CC(C)C)C(=O)N[C@@H](CCCNC(=N)N)C(=O)NCC(=O)N[C@@H](CC(=O)O)C(=O)N[C@@H](CC(C)C)C(=O)N1C |
| 180 | 34 | 5.3 | – | – | CC(C)C[C@@H]1NC(=O)[C@H](C)NC(=O)[C@H](CC(C)C)N(C)C(=O)[C@H]2CCCN2C(=O)[C@H](CC(C)C)NC(=O)[C@H](CC(=O)O)NC(=O)CNC(=O)[C@H](CCCNC(=N)N)NC1=O |
| 81.3 | 1.83 | 44.1 | – | – | CC(C)C[C@@H]1NC(=O)[C@H](CC(=O)O)NC(=O)CNC(=O)[C@H](CCCNC(=N)N)NC(=O)[C@H](Cc2ccccc2)NC(=O)[C@H](C)NC(=O)[C@@H]2CCCN2C(=O)[C@H]2CCCN2C1=O |
| 62 | 44 | 1.4 | – | – | CC(C)C[C@@H]1NC(=O)[C@H](C)NC(=O)[C@H](CCCCN)N(C)C(=O)[C@H]2CCCN2C(=O)[C@H](CC(C)C)NC(=O)[C@H](CC(=O)O)NC(=O)CNC(=O)[C@H](CCCNC(=N)N)NC1=O |
| – | 230 | – | – | – | CC(=O)NCCCCCCNC(=N)NCCC[C@@H]1NC(=O)[C@H](CC(C)C)NC(=O)CNC(=O)[C@@H]2CCCN2C(=O)[C@H]2CCCN2C(=O)[C@H](CC(C)C)NC(=O)[C@H](CC(=O)O)NC(=O)CNC1=O |
| 14.5 | 614 | – | – | – | CC(C)C[C@@H]1NC(=O)[C@H](C)NC(=O)[C@H](C)NC(=O)[C@H](CC(C)C)NC(=O)[C@H](CC(=O)O)NC(=O)CNC(=O)[C@H](CCCNC(=N)N)NC(=O)[C@@H]2CCCN2C(=O)[C@H]2CCCN2C(=O)[C@H](C)NC1=O |
| 48.4 | 90.3 | – | – | – | CC(C)C[C@@H]1NC(=O)[C@H](CC(=O)O)NC(=O)CNC(=O)[C@H](CCCNC(=N)N)NC(=O)[C@@H](c2ccccc2)NC(=O)[C@H](C)NC(=O)[C@@H]2CCCN2C(=O)[C@H]2CCCN2C1=O |
| – | – | – | Not Active | Not Active | CC(C)C[C@@H]1NC(=O)[C@H](CC(=O)O)NC(=O)[C@@H]([C@H](C)O)NC(=O)[C@H](CCCNC(=N)N)NC(=O)[C@H](Cc2ccccc2)NC(=O)[C@H](C)NC(=O)[C@@H]2CCCN2C(=O)[C@H]2CCCN2C1=O |
| 264 | 1290 | – | – | – | CC(C)C[C@@H]1NC(=O)[C@H](CC(=O)O)NC(=O)[C@H]([C@@H](C)O)NC(=O)[C@H](CCCNC(=N)N)NC(=O)[C@H](C)NC(=O)[C@@H]2CCCN2C(=O)[C@H]2CCCN2C(=O)[C@H](CC(C)C)NC(=O)[C@H](C)NC(=O)[C@H](C)NC1=O |
| – | 20 | – | – | – | CC(=O)NCCCCCCN1C(=O)[C@H]2CCCN2C(=O)[C@H](CC(C)C)NC(=O)[C@H](CC(=O)O)NC(=O)CNC(=O)[C@H](CCCNC(=N)N)NC(=O)[C@H](CC(C)C)NC(=O)CNC(=O)[C@@H]1C |
| – | – | 15 | – | – | CC(C)C[C@@H]1NC(=O)[C@H](C)NC(=O)[C@@H]2CCCN2C(=O)[C@@H](Cc2ccccc2)N(C)C(=O)[C@H](CC(C)C)NC(=O)[C@H](CC(=O)O)NC(=O)CNC(=O)[C@H](CCCNC(=N)N)NC1=O (cyclo(RGDL[dNMeF]PAL)) |
| 94.5 | 153 | – | – | – | CC(C)C[C@@H]1NC(=O)[C@H](CC(=O)O)NC(=O)[C@H]([C@@H](C)O)NC(=O)[C@H](CCCNC(=N)N)NC(=O)[C@H](C)NC(=O)[C@H](CC(C)C)NC(=O)[C@@H]2CCCN2C(=O)[C@H]2CCCN2C(=O)[C@H](C)NC(=O)[C@H](C)NC1=O |
| 13.4 | 109 | – | – | – | CC(C)C[C@@H]1NC(=O)[C@H](CC(=O)O)NC(=O)CNC(=O)[C@H](CCCNC(=N)N)NC(=O)[C@H](C)NC(=O)[C@H](CC(C)C)NC(=O)[C@@H]2CCCN2C(=O)[C@H]2CCCN2C(=O)[C@H](C)NC(=O)[C@H](C)NC1=O |
| 1550 | 3080 | – | – | – | CC(C)C[C@@H]1NC(=O)[C@H](C)NC(=O)[C@H](C)NC(=O)[C@H](CC(C)C)NC(=O)[C@H](CC(=O)O)NC(=O)[C@H]([C@@H](C)O)NC(=O)[C@H](CCCNC(=N)N)NC(=O)[C@@H]2CCCN2C(=O)[C@H]2CCCN2C(=O)[C@H](C)NC1=O |

| SMILES | IC50 (Integrin alpha-V/beta-6; read-out: IC50) [nM] | IC50 (Integrin alpha-V/beta-8; read-out: IC50) [nM] | Ratio IC50 (Homo sapiens) | IC50 (Integrin alpha-V/beta-8) | IC50 (Integrin alpha-V/beta-6) |
| --- | --- | --- | --- | --- | --- |
| CC(C)C[C@@H]1NC(=O)[C@H](CC(=O)O)NC(=O)CNC(=O)[C@H](CCCNC(=N)N)NC(=O)[C@H](C)NC(=O)[C@@H]2CCCN2C(=O)[C@H]2CCCN2C(=O)[C@H](CC(C)C)NC(=O)[C@H](C)NC(=O)[C@H](C)NC1=O (cyclo(RGDLAAL[dP]PA)) | – | 88.6 | – | – | – |
